Assay results reported in EP4186514A1, “PHARMACEUTICAL COMPOSITION FOR PREVENTING OR TREATING CHOLANGITIS OR LIVER DISEASE CAUSED BY CHOLANGITIS COMPRISING ADENOSINE DERIVATIVE” (Future Medicine Co., Ltd., priority 2021, dated 2023).

Legend:
[1] = Plasma stability, rat plasma; format: in vitro ADME
Experimental: In order to test the physicochemical properties of the adenosine derivative of the inventive concept, experiments were conducted on the compound of the formula A in vitro, and the results are shown in Table 3. Plasma stability and protein binding were measured using rat and human plasma.

[2] = Pharmacokinetic test in dogs (Experimental Example 6); format: in vivo; conditions: dog, plasma, maximum (Experimental Example 6), read-out: half-life T1/2
Experimental: In order to test the ADME properties of the adenosine derivative of the inventive concept after oral administration, pharmacokinetic properties of the compound of the formula A were measured in vivo.
Intravenous administration was performed through a tube inserted into the femoral vein, and oral administration was performed using oral gavage.
After the administration, the experimental animals' blood was taken at predetermined time intervals for 24 hours. Then, the blood was centrifuged to separate plasma. The plasma samples were pretreated with a suitable organic solvent, and then the concentration of the plasma samples was analyzed by LC-MS/MS. The blood concentration-time data of the compound of the formula A was analyzed using WinNonlin (Pharsight, USA), and graphs of the blood concentration-time data are shown in FIGS. 5 through 9. The results of noncompartmental pharmacokinetic parameters calculated from the blood concentration-time data are shown in Tables 5 through 9. In FIGS. 5 through 9, I.V. represents an intravenous administration group, P.O. represents an oral administration group, and the definition of each parameter in Tables 5 through 9 is shown in Table 10.
FIG. 8 and Table 8 show a graph and parameter values obtained from the blood concentration-time data of Experimental Example 6 (6-1, 6-2 and 6-3). […]

## O[C@@H]1[C@H](O)CS[C@H]1n1cnc2c(NCc3cccc(Cl)c3)nc(Cl)nc21 [Example 2, (2R,3R,4S)-2-(2-chloro-6-(3-chlorobenzylamino)-9H-purin-9-yl)tetrahydrothiophen-3,4-diol]
[1]
  Plasma stability: > 99.9
[2]
  half-life: ≥ 5.53 h
